# According to patent US9221809B2 (MERCK SHARP & DOHME CORP., priority 2011, dated 2015):
# Structures can show the parent of a compound that is named as a salt.
# Molecular target: IRAK4 (Homo sapiens (Human), UniProt Q9NWZ3)
# Assay: IRAK4 kinase activity, IMAP fluorescence polarization assay
# Format: biochemical
# Conditions: 100 μM ATP, 0.5 nM GST tagged IRAK4; read-out: IRAK4 IC50
# Protocol: The kinase activity of IRAK4 is determined by its ability to catalyze the phosphorylation of a fluorescent polypeptide substrate. The extent of phosphorylation is measured using IMAP technology (Molecular Devices) where the phosphorylated fluorescent substrate binds to the large M(III)-based nanoparticles which reduces the rotational speed of the substrate and thus increases its fluorescent polarization (FP).
# Assay Procedure: A 20 μl reaction mixture contains 10 mM TriHCl, pH 7.2, 0.5 nM GST tagged IRAK4 (SignalChem), 100 nM fluorescent peptide substrate (RP7030, Molecular Devices), 100 μM ATP, 1 mM DTT, 1 mM MgCl2, and 0.01% Tween 20. The reaction is initiated by the addition of ATP. After incubation for 30 minutes at 25° C., 60 μl of Progressive IMAP Reagent (Molecular Devices) is added to stop the reaction. Change in RP7030's FP is determined by a FP reader (Analyst HT, LJL BioSystems)
# Chain of IRAK4 (Q9NWZ3 whole entry): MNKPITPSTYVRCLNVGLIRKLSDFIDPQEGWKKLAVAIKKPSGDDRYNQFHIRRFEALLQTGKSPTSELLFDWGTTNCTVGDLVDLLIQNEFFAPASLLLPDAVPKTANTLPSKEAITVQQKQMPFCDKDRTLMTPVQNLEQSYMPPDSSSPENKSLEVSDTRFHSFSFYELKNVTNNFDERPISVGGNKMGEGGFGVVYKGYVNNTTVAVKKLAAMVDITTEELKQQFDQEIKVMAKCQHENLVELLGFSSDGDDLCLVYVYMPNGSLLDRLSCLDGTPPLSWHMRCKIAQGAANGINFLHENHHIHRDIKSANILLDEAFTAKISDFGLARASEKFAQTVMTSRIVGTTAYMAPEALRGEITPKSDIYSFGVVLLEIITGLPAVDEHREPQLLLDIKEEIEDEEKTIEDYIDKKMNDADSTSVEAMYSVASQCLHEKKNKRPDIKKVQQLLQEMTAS
row,SMILES,IC50 [nM]
1,"CN(C)c1nc(N[C@@H]2C[C@H](CO)[C@@H](O)[C@H]2O)c(-c2nc3ccccc3s2)c(=O)[nH]1 [Example 30, 5-(Benzo[d]thiazol-2-yl)-6-(((1R,2S,3R,4R)-2,3-dihydroxy-4-(hydroxymethyl)cyclopentyl)amino)-2-(dimethylamino)pyrimidin-4(3H)-one.HCl]",542
2,"O=c1[nH]c(NC2CNC2)nc(N[C@@H]2C[C@H](CO)[C@@H](O)[C@H]2O)c1-c1nc2ccccc2s1 [Example 36, 2-(Azetidin-3-ylamino)-5-(benzo[d]thiazol-2-yl)-6-(((1R,2S,3R,4R)-2,3-dihydroxy-4-(hydroxymethyl)cyclopentyl)amino)pyrimidin-4(3H)-one.HCl]",656
3,"O=c1[nH]c(NC2CCNC2)nc(N[C@@H]2C[C@H](CO)[C@@H](O)[C@H]2O)c1-c1nc2ccccc2s1 (stereo partly drawn) [Example 37, 5-(Benzo[d]thiazol-2-yl)-6-(((1R,2S,3R,4R)-2,3-dihydroxy-4-(hydroxymethyl)cyclopentyl)amino)-2-(pyrrolidin-3-ylamino)pyrimidin-4(3H)-one.HCl]",2000
4,"O=c1[nH]c(N[C@@H]2CCCNC2)nc(N[C@@H]2C[C@H](CO)[C@@H](O)[C@H]2O)c1-c1nc2ccccc2s1 [Example 38, 5-(Benzo[d]thiazol-2-yl)-6-(((1R,2S,3R,4R)-2,3-dihydroxy-4-(hydroxymethyl)cyclopentyl)amino)-2-((R)-piperidin-3-ylamino)pyrimidin-4(3H)-one.HCl]",5120
5,"O=c1[nH]c(N[C@H]2CCCNC2)nc(N[C@@H]2C[C@H](CO)[C@@H](O)[C@H]2O)c1-c1nc2ccccc2s1 [Example 39, 5-(Benzo[d]thiazol-2-yl)-6-(((1R,2S,3R,4R)-2,3-dihydroxy-4-(hydroxymethyl)cyclopentyl)amino)-2-((S)-piperidin-3-ylamino)pyrimidin-4(3H)-one.HCl]",4260

# Compounds with a lower IC50, results first:
row,IC50 [nM],SMILES
1,18,"O=c1[nH]c(N2CCCC2)nc(N[C@@H]2C[C@H](CO)[C@@H](O)[C@H]2O)c1-c1nc2ccccc2s1 [Example 25, 5-(Benzo[d]thiazol-2-yl)-6-(((1R,2S,3R,4R)-2,3-dihydroxy-4-(hydroxymethyl)cyclopentyl)amino)-2-(pyrrolidin-1-yl)pyrimidin-4(3H)-one.HCl]"
2,135,"O=c1[nH]c(N2CCC(F)(F)CC2)nc(N[C@@H]2C[C@H](CO)[C@@H](O)[C@H]2O)c1-c1nc2ccccc2s1 [Example 27, 5-(Benzo[d]thiazol-2-yl)-2-(4,4-difluoropiperidin-1-yl)-6-(((1R,2S,3R,4R)-2,3-dihydroxy-4-(hydroxymethyl)cyclopentyl)amino)pyrimidin-4(3H)-one.HCl]"
3,67,"O=c1[nH]c(N2CCC2)nc(N[C@@H]2C[C@H](CO)[C@@H](O)[C@H]2O)c1-c1nc2ccccc2s1 [Example 31, 2-(Azetidin-1-yl)-5-(benzo[d]thiazol-2-yl)-6-(((1R,2S,3R,4R)-2,3-dihydroxy-4-(hydroxymethyl)cyclopentyl)amino)pyrimidin-4(3H)-one.HCl]"
4,26.6,"Cc1csc(-c2c(N[C@@H]3C[C@H](CO)[C@@H](O)[C@H]3O)nc(N3CCOCC3)[nH]c2=O)n1 [Example 32, 6-(((1R,2S,3R,4R)-2,3-Dihydroxy-4-(hydroxymethyl)cyclopentyl)amino)-5-(4-methylthiazol-2-yl)-2-morpholinopyrimidin-4(3H)-one.HCl]"
5,93.6,"Cc1csc(-c2c(N[C@@H]3C[C@H](CO)[C@@H](O)[C@H]3O)nc(N3CCC(C(F)(F)F)CC3)[nH]c2=O)n1 [Example 33, 6-(((1R,2S,3R,4R)-2,3-Dihydroxy-4-(hydroxymethyl)cyclopentyl)amino)-5-(4-methylthiazol-2-yl)-2-(4-(trifluoromethyl)piperidin-1-yl)pyrimidin-4(3H)-one.HCl]"
6,296,"Cc1cccc(-c2c(N[C@@H]3C[C@H](CO)[C@@H](O)[C@H]3O)nc(N3CCCCC3)[nH]c2=O)n1 [Example 35, 6-(((1R,2S,3R,4R)-2,3-Dihydroxy-4-(hydroxymethyl)cyclopentyl)amino)-5-(6-methylpyridin-2-yl)-2-(piperidin-1-yl)pyrimidin-4(3H)-one.HCl]"
